Data from patent US9522908B2, “Ezrin inhibitors and methods of making and using” (Georgetown University, priority 2010, dated 2016).

Tests used:
[1] = test system: K7M2 metastatic OS tumor cells; assay: In vivo experimental lung metastasis model, K7M2 cells; design: species or system mice
Method: FIG. 6 illustrates NSC305787 and NSC668394 inhibit in vivo OS metastatic growth in lungs. (A) K7M2 metastatic OS tumor cells (1×10^6) were injected via tail vein. Vehicle (1% DMSO), NSC305787 (240 μg/kg) and NSC668394 (226 μg/kg) were injected 5 days a week intraperitoneally. Kaplan-Meier survival curves show percent survival for NSC305787 and NSC668394 treatment over time. Median survival of vehicle, NSC305787 and NSC668394 treated K7M2 cells were 28.5, 50, and 49 days after tumor cell injection. […] (B) Fluorescence pictures of whole lungs are given. […] (C) GFP expressing ezrin independent MNNG, human OS cells were injected to mice and treated with vehicle (1% DMSO), NSC305787 (240 μg/kg) and NSC668394 (226 μg/kg). Survival of each group is not different probably because MNNG is an ezrin independent cell line. Median survival of vehicle, NSC305787 and NSC668394 treated MNNG cells were 50.5, 49, and 48.5 days after tumor cell injection. (D) Fluorescent images of the lung tissues of this group are given.
GFP expressing K7M2 or MNNG tumor cells (1×10^6) were delivered by tail vein to nude mice. One day after injection, vehicle, NSC305787 (240 μg/kg/inj) and […] (226 μg/kg/inj) were injected 5 days a week intraperitoneally.

[2] = biological target: T1, ezrin in K7M2 OS cells (Mus musculus, UniProt P26040); assay: Endogenous ezrin T567 phosphorylation and actin binding in K7M2 cells (immunoprecipitation/immunoblot); type: cell-based; conditions: 10 μM
T1 construct: endogenous in cells; host or cells: K7M2 osteosarcoma cells
Method: (§1) K7M2 cells that were treated with embodied compounds and resolved protein lysates were immunoblotted for co-precipitated phosphorylated ezrin (TOP), or actin (BOTTOM). 4.0×10^6 K7M2 cells were plated in 15 cm dishes. After 24 h, the plates are at least 70% confluent. Media was removed and 10 μM of compound in SF DMEM was added. After the ezrin protein was incubated for 5 h with the indicated compound, the plates were lysed with PLB containing Calyculin A. 2 μL of Ezrin Ab and 10 μM of the compound (prepared in PLB) were added to the lysate and allowed to incubate overnight (14 h), followed by tumbling with Agarose IgG beads. The mixture was run on 10% acrylamide gel and transferred overnight.
as §1, with “removed and either 7 μM or 10 μM” for “removed and 10 μM”
For analysis of actin binding to FL and mutant ezrin, K12 cell lysate was incubated with recombinant ezrin protein, then subjected to immunoprecipitation with ezrin antibody (Sigma, St. Louis, Mo.) and immunoblotted with actin antibody (Santa Cruz, Santa Cruz, Calif.). For analysis of inhibition of small molecules on ezrin phosphorylation and actin binding, K7M2 cell lysates were treated with compounds at 10 μM concentration for 6 hours, followed by immunoprecipitation with the ezrin antibody and immunoblotted with phospho-ezrin (Cell Signaling, Danvers, Mass.), actin and ezrin antibodies.

[3] = biological target: T2, PKC,τ (Homo sapiens, UniProt P41743); assay: SPR direct binding to PKC,τ (Biacore); conditions: data not shown
T2 sequence (P41743 1-596): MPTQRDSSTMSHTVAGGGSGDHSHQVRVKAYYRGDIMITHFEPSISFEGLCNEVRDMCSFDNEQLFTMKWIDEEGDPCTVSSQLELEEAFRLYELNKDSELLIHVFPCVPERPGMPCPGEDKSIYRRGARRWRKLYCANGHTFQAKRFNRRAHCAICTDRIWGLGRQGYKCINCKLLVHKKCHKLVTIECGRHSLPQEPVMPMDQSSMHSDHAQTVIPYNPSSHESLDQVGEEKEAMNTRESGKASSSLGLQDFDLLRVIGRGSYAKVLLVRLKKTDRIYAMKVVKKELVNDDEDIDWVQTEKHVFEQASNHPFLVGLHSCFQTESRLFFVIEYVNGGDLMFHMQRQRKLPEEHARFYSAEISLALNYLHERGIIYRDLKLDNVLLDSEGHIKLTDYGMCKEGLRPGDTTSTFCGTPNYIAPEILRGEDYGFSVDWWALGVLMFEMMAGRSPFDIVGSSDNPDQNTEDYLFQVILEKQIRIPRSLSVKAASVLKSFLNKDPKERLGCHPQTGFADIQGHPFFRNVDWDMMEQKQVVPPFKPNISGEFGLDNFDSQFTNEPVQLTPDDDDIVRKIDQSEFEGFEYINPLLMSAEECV

T1 sequence (P26040 whole entry): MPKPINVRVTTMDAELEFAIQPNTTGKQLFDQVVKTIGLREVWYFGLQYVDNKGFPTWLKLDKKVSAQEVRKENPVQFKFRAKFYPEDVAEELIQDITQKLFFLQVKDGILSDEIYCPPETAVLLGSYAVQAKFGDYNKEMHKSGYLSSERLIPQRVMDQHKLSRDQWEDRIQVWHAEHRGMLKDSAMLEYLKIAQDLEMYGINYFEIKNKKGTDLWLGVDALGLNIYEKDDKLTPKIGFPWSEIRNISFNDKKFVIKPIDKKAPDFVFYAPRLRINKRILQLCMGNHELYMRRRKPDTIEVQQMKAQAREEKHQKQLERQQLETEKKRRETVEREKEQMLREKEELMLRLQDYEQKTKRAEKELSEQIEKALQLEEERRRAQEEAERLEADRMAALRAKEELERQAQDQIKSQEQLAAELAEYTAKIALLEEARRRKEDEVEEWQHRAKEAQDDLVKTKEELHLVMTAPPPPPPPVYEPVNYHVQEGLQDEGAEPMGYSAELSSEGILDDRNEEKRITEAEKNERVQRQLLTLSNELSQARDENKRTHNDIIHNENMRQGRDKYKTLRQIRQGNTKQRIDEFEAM

## OC(c1cc(C23CC4CC(CC(C4)C2)C3)nc2c(Cl)cc(Cl)cc12)C1CCCCN1 (stereo not drawn) [NSC305787]
[1]; K7M2 cells
  number of GFP expressing metastatic foci in lung tissues: significant decrease
[1]; K7M2 cells by tail vein, i.p. 5 days a week, vehicle 28.5 days
  median survival after tumor cell injection: 50 days
[2]
  cellular ezrin protein levels: without altering cellular ezrin protein levels
[2]; 6 hours
  T567 phosphorylation of endogenous ezrin: inhibited
  actin binding of ezrin: inhibited
[3]
  Kd: 172 µM
